Source: PubChem BioAssay AID1963970 (Molecular Pharmacology Branch, DTP, NCI, 2024)

Test system: 931267-113-T-J1-PDC multicell spheroid viability
Assay: Anticancer human tumor 931267-113-T-J1-PDC patient-derived colon adenocarcinoma cell line growth inhibition [PI3K]
Conditions: for IC50: curve of first compound; for viability, T/C: stronger effect = lower value
Outline: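 Tumor cells grown as multi-cell spheroids with HUVEC endothelial cells and MSC fibroblast-like stroma were treated with targeted agents combined with inavolisib, alpelisib, duvelisib or copanlisib. Doses fell in half-log steps from near clinical Cmax, else from 10 microM. Viability was measured.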

[1] = second compound 0.0316 µM, first compound 0.0316 µM
[2] = second compound 0.0316 µM, first compound 0.1 µM
[3] = second compound 0.1 µM, first compound 0.0316 µM
[4] = second compound 0.1 µM, first compound 0.1 µM
[5] = second compound 0.316 µM, first compound 0.0316 µM
[6] = second compound 0.316 µM, first compound 0.1 µM
[7] = second compound 1 µM, first compound 0.0316 µM
[8] = second compound 1 µM, first compound 0.1 µM
[9] = second compound 3.16 µM, first compound 0.0316 µM
[10] = second compound 3.16 µM, first compound 0.1 µM
[11] = second compound 10 µM, first compound 0.0316 µM
[12] = second compound 10 µM, first compound 0.1 µM
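Also: viability read 7 days after compound addition.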

Question: How did the IC50 (second compound 0.0316 µM) turn out when `CC(C)n1nc(-c2ccc3oc(N)nc3c2)c2c(N)ncnc21` + Cc1nc(NC(=O)N2CCCC2C(N)=O)sc1-c1ccnc(C(C)(C)C(F)(F)F)c1 was run?
Answer: Its IC50 is 91.5 nM.

Question: And the IC50 (second compound 0.1 µM)?
Answer: The IC50 was 77.7 nM.

Question: And the IC50 (second compound 0.316 µM)?
Answer: The IC50 was 69.7 nM.

Question: And the IC50 (second compound 1 µM)?
Answer: The IC50 was 56.9 nM.

Question: And the IC50 (second compound 3.16 µM)?
Answer: The IC50 was 24.9 nM.

Question: What about the IC50 (second compound 10 µM) of the same compound?
Answer: Its IC50 is 8.31 nM.

Question: What about the viability, T/C (second compound 0.0316 µM, first compound 0.000316 µM) of the same compound?
Answer: Its viability, T/C is 97.2%.

Question: And the viability, T/C (second compound 0.0316 µM, first compound 0.001 µM)?
Answer: The viability, T/C was 84.3%.

Question: And the viability, T/C (second compound 0.0316 µM, first compound 0.00316 µM)?
Answer: Its viability, T/C is 81.5%.

Question: What about the viability, T/C (second compound 0.0316 µM, first compound 0.01 µM) of the same compound?
Answer: Its viability, T/C is 101%.

Question: And the viability, T/C [1]?
Answer: Its viability, T/C is 78.3%.

Question: And the viability, T/C [2]?
Answer: Its viability, T/C is 47.6%.

Question: What about the viability, T/C (second compound 0.1 µM, first compound 0.000316 µM) of the same compound?
Answer: Its viability, T/C is 97.3%.

Question: And the viability, T/C (second compound 0.1 µM, first compound 0.001 µM)?
Answer: The viability, T/C was 91.1%.

Question: What about the viability, T/C (second compound 0.1 µM, first compound 0.00316 µM) of the same compound?
Answer: The viability, T/C was 89.9%.

Question: What about the viability, T/C (second compound 0.1 µM, first compound 0.01 µM) of the same compound?
Answer: The viability, T/C was 92.6%.

Question: And the viability, T/C [3]?
Answer: The viability, T/C was 79.7%.

Question: What about the viability, T/C [4] of the same compound?
Answer: Its viability, T/C is 41.5%.

Question: And the viability, T/C (second compound 0.316 µM, first compound 0.000316 µM)?
Answer: The viability, T/C was 88.8%.

Question: What about the viability, T/C (second compound 0.316 µM, first compound 0.001 µM) of the same compound?
Answer: Its viability, T/C is 91.9%.

Question: And the viability, T/C (second compound 0.316 µM, first compound 0.00316 µM)?
Answer: Its viability, T/C is 86.8%.

Question: What about the viability, T/C (second compound 0.316 µM, first compound 0.01 µM) of the same compound?
Answer: Its viability, T/C is 85.5%.

Question: And the viability, T/C [5]?
Answer: Its viability, T/C is 68.4%.

Question: And the viability, T/C [6]?
Answer: The viability, T/C was 41.5%.

Question: What about the viability, T/C (second compound 1 µM, first compound 0.000316 µM) of the same compound?
Answer: Its viability, T/C is 78.9%.

Question: And the viability, T/C (second compound 1 µM, first compound 0.001 µM)?
Answer: The viability, T/C was 72.3%.

Question: What about the viability, T/C (second compound 1 µM, first compound 0.00316 µM) of the same compound?
Answer: Its viability, T/C is 72.7%.

Question: What about the viability, T/C (second compound 1 µM, first compound 0.01 µM) of the same compound?
Answer: The viability, T/C was 66.8%.

Question: And the viability, T/C [7]?
Answer: The viability, T/C was 64.1%.

Question: And the viability, T/C [8]?
Answer: The viability, T/C was 38.3%.

Question: What about the viability, T/C (second compound 3.16 µM, first compound 0.000316 µM) of the same compound?
Answer: Its viability, T/C is 68.8%.

Question: What about the viability, T/C (second compound 3.16 µM, first compound 0.001 µM) of the same compound?
Answer: Its viability, T/C is 67.8%.

Question: And the viability, T/C (second compound 3.16 µM, first compound 0.00316 µM)?
Answer: Its viability, T/C is 62.1%.

Question: And the viability, T/C (second compound 3.16 µM, first compound 0.01 µM)?
Answer: The viability, T/C was 58.4%.

Question: What about the viability, T/C [9] of the same compound?
Answer: Its viability, T/C is 48.4%.

Question: And the viability, T/C [10]?
Answer: Its viability, T/C is 30.7%.

Question: What about the viability, T/C (second compound 10 µM, first compound 0.000316 µM) of the same compound?
Answer: The viability, T/C was 62.3%.

Question: What about the viability, T/C (second compound 10 µM, first compound 0.001 µM) of the same compound?
Answer: The viability, T/C was 52.3%.

Question: And the viability, T/C (second compound 10 µM, first compound 0.00316 µM)?
Answer: The viability, T/C was 55.6%.

Question: What about the viability, T/C (second compound 10 µM, first compound 0.01 µM) of the same compound?
Answer: Its viability, T/C is 45.7%.

Question: And the viability, T/C [11]?
Answer: The viability, T/C was 44%.

Question: And the viability, T/C [12]?
Answer: Its viability, T/C is 24.1%.

Question: Which results are given for `CCCS(=O)(=O)Nc1ccc(F)c(C(=O)c2c[nH]c3ncc(-c4ccc(Cl)cc4)cc23)c1F` + Cc1nc(NC(=O)N2CCCC2C(N)=O)sc1-c1ccnc(C(C)(C)C(F)(F)F)c1?
Answer: IC50 (second compound 0.0316 µM): 6230 nM; IC50 (second compound 0.1 µM): 6090 nM; IC50 (second compound 0.316 µM): 5470 nM; IC50 (second compound 1 µM): 5380 nM; IC50 (second compound 3.16 µM): 4530 nM; IC50 (second compound 10 µM): 2390 nM; viability, T/C [1]: 104%; viability, T/C [2]: 98%; viability, T/C (second compound 0.0316 µM, first compound 0.316 µM): 121%; viability, T/C (second compound 0.0316 µM, first compound 1 µM): 131%; viability, T/C (second compound 0.0316 µM, first compound 3.16 µM): 113%; viability, T/C (second compound 0.0316 µM, first compound 10 µM): 6.2%; viability, T/C [3]: 99.5%; viability, T/C [4]: 105%; viability, T/C (second compound 0.1 µM, first compound 0.316 µM): 105%; viability, T/C (second compound 0.1 µM, first compound 1 µM): 118%; viability, T/C (second compound 0.1 µM, first compound 3.16 µM): 120%; viability, T/C (second compound 0.1 µM, first compound 10 µM): 5.03%; viability, T/C [5]: 100%; viability, T/C [6]: 91%; viability, T/C (second compound 0.316 µM, first compound 0.316 µM): 95.7%; viability, T/C (second compound 0.316 µM, first compound 1 µM): 108%; viability, T/C (second compound 0.316 µM, first compound 3.16 µM): 91.2%; viability, T/C (second compound 0.316 µM, first compound 10 µM): 4.47%; viability, T/C [7]: 87.8%; viability, T/C [8]: 80.5%; viability, T/C (second compound 1 µM, first compound 0.316 µM): 91.5%; viability, T/C (second compound 1 µM, first compound 1 µM): 96.6%; viability, T/C (second compound 1 µM, first compound 3.16 µM): 89.6%; viability, T/C (second compound 1 µM, first compound 10 µM): 4.19%; viability, T/C [9]: 69%; viability, T/C [10]: 82.1%; viability, T/C (second compound 3.16 µM, first compound 0.316 µM): 77.7%; viability, T/C (second compound 3.16 µM, first compound 1 µM): 72.5%; viability, T/C (second compound 3.16 µM, first compound 3.16 µM): 70.7%; viability, T/C (second compound 3.16 µM, first compound 10 µM): 4.52%; viability, T/C [11]: 61.2%; viability, T/C [12]: 60.9%; viability, T/C (second compound 10 µM, first compound 0.316 µM): 65.3%; viability, T/C (second compound 10 µM, first compound 1 µM): 63.7%; viability, T/C (second compound 10 µM, first compound 3.16 µM): 46%; viability, T/C (second compound 10 µM, first compound 10 µM): 3.36%
